# The supplement of paper PMC10307832
# Assays:
# Assay in all cases: relative viability (nuclei count vs DMSO), 5 days (fraction); higher = more cells survive
# NCI-H2085 = system: NCI-H2085
# Summary of the method: (§1)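 The day after seeding in 1536-well plates, lung cancer cell lines were treated by pin tool with a single drug, or with a fixed anchor-drug dose together with five library-drug doses (not always all listed) in √10 steps. After 5 days, a combined fix-and-stain solution (final 0.05% Triton X-100, 1% formaldehyde, 1 ug/ml Hoechst) was added. Nuclei counted on 4× images gave relative viability as treated counts over vehicle counts, reported as the median of duplicate plates.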
# NCI-H322M = system: NCI-H322M
# Summary of the method: as §1
# CAL-12T = system: CAL-12T
# Summary of the method: as §1
# LK-2 = system: LK-2
# Summary of the method: as §1
# LCLC-103H = system: LCLC-103H
# Summary of the method: as §1
# NCI-H2228 = system: NCI-H2228
# Summary of the method: as §1
# NCI-H1437 = system: NCI-H1437
# Summary of the method: as §1
# COR-L 105 = system: COR-L 105
# Summary of the method: as §1
# LU99A = system: LU99A
# Summary of the method: as §1
# NCI-H23 = system: NCI-H23
# Summary of the method: as §1
# BEN = system: BEN
# Summary of the method: as §1
# UMC-11 = system: UMC-11
# Summary of the method: as §1
# NCI-H1651 = system: NCI-H1651
# Summary of the method: as §1
# NCI-H2405 = system: NCI-H2405
# Summary of the method: as §1
# HCC-15 = system: HCC-15
# Summary of the method: as §1
# HCC-827 = system: HCC-827
# Summary of the method: as §1
# 201T = system: 201T
# Summary of the method: as §1
# HARA = system: HARA
# Summary of the method: as §1
# LC-2-ad = system: LC-2-ad
# Summary of the method: as §1
# NCI-H1792 = system: NCI-H1792
# Summary of the method: as §1
# LXF-289 = system: LXF-289
# Summary of the method: as §1
# RERF-LC-KJ = system: RERF-LC-KJ
# Summary of the method: as §1
# H3255 = system: H3255
# Summary of the method: as §1
compound,measurement,setting,value
O=C(O)CCCCC(CCSCc1ccccc1)SCc1ccccc1 (stereo not given) [CPI-613] + CC(=O)c1c(C)c2cnc(Nc3ccc(N4CCNCC4)cn3)nc2n(C2CCCC2)c1=O [Palbociclib] (partner 0.5 µM),relative viability,NCI-H2085; first compound 5 µM,0.447
same,relative viability,NCI-H2085; first compound 15.81 µM,0.47
same,relative viability,NCI-H2085; first compound 50 µM,0.456
same,relative viability,NCI-H2085; first compound 158.11 µM,0.391
same,relative viability,NCI-H2085; first compound 500 µM,0.191
same,relative viability,NCI-H322M; first compound 5 µM,0.466
same,relative viability,NCI-H322M; first compound 15.81 µM,0.47
same,relative viability,NCI-H322M; first compound 50 µM,0.494
same,relative viability,NCI-H322M; first compound 158.11 µM,0.513
same,relative viability,NCI-H322M; first compound 500 µM,0.288
same,relative viability,CAL-12T; first compound 5 µM,0.321
same,relative viability,CAL-12T; first compound 15.81 µM,0.283
same,relative viability,CAL-12T; first compound 50 µM,0.461
same,relative viability,CAL-12T; first compound 158.11 µM,0.0907
same,relative viability,CAL-12T; first compound 500 µM,0.0203
same,relative viability,LK-2; first compound 5 µM,0.766
same,relative viability,LK-2; first compound 15.81 µM,0.684
same,relative viability,LK-2; first compound 50 µM,0.726
same,relative viability,LK-2; first compound 158.11 µM,0.532
same,relative viability,LK-2; first compound 500 µM,0.547
same,relative viability,LCLC-103H; first compound 5 µM,0.464
same,relative viability,LCLC-103H; first compound 15.81 µM,0.456
same,relative viability,LCLC-103H; first compound 50 µM,0.455
same,relative viability,LCLC-103H; first compound 158.11 µM,0.343
same,relative viability,LCLC-103H; first compound 500 µM,0.213
same,relative viability,NCI-H2228; first compound 5 µM,0.693
same,relative viability,NCI-H2228; first compound 15.81 µM,0.622
same,relative viability,NCI-H2228; first compound 50 µM,0.679
same,relative viability,NCI-H2228; first compound 158.11 µM,0.45
same,relative viability,NCI-H2228; first compound 500 µM,0.0679
same,relative viability,NCI-H1437; first compound 5 µM,0.284
same,relative viability,NCI-H1437; first compound 15.81 µM,0.281
same,relative viability,NCI-H1437; first compound 50 µM,0.292
same,relative viability,NCI-H1437; first compound 158.11 µM,0.0875
same,relative viability,NCI-H1437; first compound 500 µM,0.026
same,relative viability,COR-L 105; first compound 5 µM,0.423
same,relative viability,COR-L 105; first compound 15.81 µM,0.441
same,relative viability,COR-L 105; first compound 50 µM,0.379
same,relative viability,COR-L 105; first compound 158.11 µM,0.294
same,relative viability,COR-L 105; first compound 500 µM,0.26
same,relative viability,LU99A; first compound 5 µM,0.383
same,relative viability,LU99A; first compound 15.81 µM,0.411
same,relative viability,LU99A; first compound 50 µM,0.372
same,relative viability,LU99A; first compound 158.11 µM,0.193
same,relative viability,LU99A; first compound 500 µM,0.264
same,relative viability,NCI-H23; first compound 5 µM,0.465
same,relative viability,NCI-H23; first compound 15.81 µM,0.465
same,relative viability,NCI-H23; first compound 50 µM,0.519
same,relative viability,NCI-H23; first compound 158.11 µM,0.104
same,relative viability,NCI-H23; first compound 500 µM,0.0119
same,relative viability,BEN; first compound 5 µM,0.457
same,relative viability,BEN; first compound 15.81 µM,0.506
same,relative viability,BEN; first compound 50 µM,0.487
same,relative viability,BEN; first compound 158.11 µM,0.483
same,relative viability,BEN; first compound 500 µM,0.42
same,relative viability,UMC-11; first compound 5 µM,0.346
same,relative viability,UMC-11; first compound 15.81 µM,0.354
same,relative viability,UMC-11; first compound 50 µM,0.323
same,relative viability,UMC-11; first compound 158.11 µM,0.23
same,relative viability,UMC-11; first compound 500 µM,0.216
same,relative viability,NCI-H1651; first compound 5 µM,0.51
same,relative viability,NCI-H1651; first compound 15.81 µM,0.466
same,relative viability,NCI-H1651; first compound 50 µM,0.487
same,relative viability,NCI-H1651; first compound 158.11 µM,0.46
same,relative viability,NCI-H1651; first compound 500 µM,0.514
same,relative viability,NCI-H2405; first compound 5 µM,0.558
same,relative viability,NCI-H2405; first compound 15.81 µM,0.499
same,relative viability,NCI-H2405; first compound 50 µM,0.453
same,relative viability,NCI-H2405; first compound 158.11 µM,0.167
same,relative viability,NCI-H2405; first compound 500 µM,0.316
same,relative viability,HCC-15; first compound 5 µM,0.649
same,relative viability,HCC-15; first compound 15.81 µM,0.694
same,relative viability,HCC-15; first compound 50 µM,0.681
same,relative viability,HCC-15; first compound 158.11 µM,0.332
same,relative viability,HCC-15; first compound 500 µM,0.126
same,relative viability,HCC-827; first compound 5 µM,0.465
same,relative viability,HCC-827; first compound 15.81 µM,0.491
same,relative viability,HCC-827; first compound 50 µM,0.464
same,relative viability,HCC-827; first compound 158.11 µM,0.496
same,relative viability,HCC-827; first compound 500 µM,0.417
same,relative viability,201T; first compound 5 µM,0.341
same,relative viability,201T; first compound 15.81 µM,0.34
same,relative viability,201T; first compound 50 µM,0.353
same,relative viability,201T; first compound 158.11 µM,0.185
same,relative viability,201T; first compound 500 µM,0.204
same,relative viability,HARA; first compound 5 µM,0.214
same,relative viability,HARA; first compound 15.81 µM,0.26
same,relative viability,HARA; first compound 50 µM,0.309
same,relative viability,HARA; first compound 158.11 µM,0.198
same,relative viability,HARA; first compound 500 µM,0.105
same,relative viability,LC-2-ad; first compound 5 µM,0.446
same,relative viability,LC-2-ad; first compound 15.81 µM,0.472
same,relative viability,LC-2-ad; first compound 50 µM,0.489
same,relative viability,LC-2-ad; first compound 158.11 µM,0.24
same,relative viability,LC-2-ad; first compound 500 µM,0.168
same,relative viability,NCI-H1792; first compound 5 µM,0.627
same,relative viability,NCI-H1792; first compound 15.81 µM,0.607
same,relative viability,NCI-H1792; first compound 50 µM,0.654
same,relative viability,NCI-H1792; first compound 158.11 µM,0.632
same,relative viability,NCI-H1792; first compound 500 µM,0.666
same,relative viability,LXF-289; first compound 5 µM,0.561
same,relative viability,LXF-289; first compound 15.81 µM,0.59
same,relative viability,LXF-289; first compound 50 µM,0.558
same,relative viability,LXF-289; first compound 158.11 µM,0.509
same,relative viability,LXF-289; first compound 500 µM,0.393
same,relative viability,RERF-LC-KJ; first compound 5 µM,1.07
same,relative viability,RERF-LC-KJ; first compound 15.81 µM,0.952
same,relative viability,RERF-LC-KJ; first compound 50 µM,1.09
same,relative viability,RERF-LC-KJ; first compound 158.11 µM,0.615
same,relative viability,RERF-LC-KJ; first compound 500 µM,0.571
same,relative viability,H3255; first compound 5 µM,0.296
same,relative viability,H3255; first compound 15.81 µM,0.302
same,relative viability,H3255; first compound 50 µM,0.339
same,relative viability,H3255; first compound 158.11 µM,0.328
same,relative viability,H3255; first compound 500 µM,0.302
